Test results taken from patent US20240246956A1, “CLASS IIA HISTONE DEACETYLASE (HDAC) DEGRADER LIGANDS AND METHODS OF USE THEREOF” (DANA-FARBER CANCER INSTITUTE, INC., priority 2021, published 2024).
pIC50: −log10 of the molar value.

Columns and labels:
CRBN = biological target: T1, CRBN (Homo sapiens, UniProt Q96SW2); assay: Cellular CRBN engagement assay (competition with dBET6, BRD4BD2-eGFP reporter); format: cell-based; conditions: FIG. 1; for cell permeability (from cellular CRBN engagement): Flp-In 293 reporter cells; for pIC50: competition with 100 nM dBET6, 5 h, Flp-In 293 cells expressing BRD4BD2-eGFP and mCherry
T1 construct: endogenous in cells; host or cells: Flp-In 293 cells stably expressing BRD4BD2-eGFP and mCherry
Procedure: BRD4BD2 was subcloned into mammalian pcDNA5/FRT Vector (Ampicillin and Hygromycin B resistant) modified to contain MCS-eGFP-P2A-mCherry. Stable cell lines expressing eGFP-protein fusion and mCherry reporter were generated using Flp-In™ 293 system. Plasmid (0.3 μg) and pOG44 (4.7 μg) DNA were preincubated in 100 μL of Opti-MEM™ I (Gibco™, Life Technologies™) media containing 0.05 mg/ml Lipofectamine 2000 (Invitrogen™) for 20 min and added to Flp-In™ 293 cells containing 1.9 ml of Dulbecco's Modified Eagle Medium (DMEM) media (Gibco™, Life Technologies™) per well in a 6-well plate format (Falcon, 353046). Cells were propagated after 48 h and transferred into a 10 cm^2 plate (Corning®, 430165) in DMEM media containing 50 μg/ml of Hygromycin B (Invitrogen™, REF 10687010) as a selection marker. Following 2-3 passage cycles, FACS (FACSAria™ II, BD) was used to enrich for cells expressing eGFP and mCherry.
Stable cells expressing the BRD4BD2-eGFP protein fusion and the mCherry reporter were seeded at a density of 1000-4000 cells/well in a 384-well plate with 50 μL per well of FluoroBrite™ DMEM media (Thermo Fisher Scientific, A18967) supplemented with 10% FBS a day before compound treatment. Compounds and 100 nM dBET6 were dispensed using a D300e Digital Dispenser (HP), normalized to 0.5% DMSO, and incubated with the cells for 5 h. The assay plate was imaged immediately using an acument High Content Imager (TTP Labtech) with 488 nm and 561 nm lasers in a […] grid per well format. The resulting images were analyzed using CellProfiler™ (Carpenter et al., Genome Biol. 7(10):R100 (2006)). A series of image analysis steps (an ‘image analysis pipeline’) was constructed. First, the red and green channels were aligned and cropped to target the middle of each well (to avoid analysis of the heavily clumped cells at the edges). A background illumination function was calculated for both red and green channels of each well individually and subtracted to correct for illumination variations across the 384-well plate from various sources of error. An additional step was then applied to the green channel to suppress the analysis of large auto fluorescent artifacts and enhance the analysis of cell specific fluorescence by way of selecting for objects under a given size (30 A.U.) and with a given shape (speckles). mCherry-positive cells were then identified in the red channel by filtering for objects 8-60 pixels in diameter and by using intensity to distinguish between clumped objects. […] The fraction of GFP-positive cells/mCherry-positive cells in each well was then calculated, and the green and red images were rescaled for visualization. […]

HDAC9 = biological target: T2, HDAC9 (Homo sapiens, UniProt Q9UKV0); assay: In vitro HDAC enzymatic assay (Reaction Biology); format: biochemical; conditions: dose response, FIG. 2A-2B
T2 construct: purchased Reaction Biology (Devault, PA)

SMILES	cell permeability (from cellular CRBN engagement) (CRBN)	pIC50 (CRBN)	inhibition of HDAC9 (HDAC9)
O=C1CCC(N2C(=O)c3cccc(NCCCCCCN4CCC(CNC(=O)c5cccc(-c6noc(C(F)(F)F)n6)c5)(c5nc(-c6ccccc6)cs5)CC4)c3C2=O)C(=O)N1 (stereo not drawn) [Compound 1]	cell permeable	6.85	inhibited
CCN(CCNc1cccc2c1C(=O)N(C1CCC(=O)NC1=O)C2=O)C[C@@H](C)NC(=O)c1ccc(-c2noc(C(F)(F)F)n2)cc1 (stereo partly drawn) [Compound 16, N-((2R)-1-((2-((2-(2,6-dioxopiperidin-3-yl)-1,3-dioxoisoindolin-4-yl)amino)ethyl)(ethyl)amino)propan-2-yl)-4-(5-(trifluoromethyl)-1,2,4-oxadiazol-3-yl)benzamide]	cell permeable	5.16	inhibited
